We go through seven compounds from patent publication US20190330224A1, “ACC INHIBITORS AND USES THEREOF” (Gilead Apollo, LLC, priority 2015, published 2019).

Structures are written as SMILES. Values after ≈ are worked out from the molar mass of the structure shown.

The subject of test [1] is Fusarium moniliforme (Fm). Briefly: Growth inhibition assay of fungal pathogens, Fm. The note with it: Fusarium verticillioides; 48 hours; read-out: Concentration at 90% Inhibition, Fm. In kind it is cell-based. In a few lines: (§1)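 Spores in 17% V8 medium exposed to compound at final 50, 10, 2 ppm or 2, 0.4, 0.08 ppm, with 2% DMSO. OD600 and visual ratings taken at 24 and 48 h, with blank subtracted. Percent growth inhibition derived from 48 h readings relative to 2% DMSO control.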

The next test concerns the target Fungal ACC2 (UniProt Q00955). The following applies: read-out: Fungal ACC2 (IC50, in vitro ACC2 inhibition).
In the next test the test system is Diplodia maydis (Dm). Briefly: Growth inhibition assay of fungal pathogens, Dm. The following applies: Stenocarpella maydis; 48 hours; read-out: Concentration at 90% Inhibition, Dm. The class given is cell-based. In a few lines: as §1
The test system of test [2] is Phytophthora capsici (Pc). The experiment in a line: Growth inhibition assay of fungal pathogens, Pc. The class given is cell-based. The note with it: 48 hours, read-out: Concentration at 90% Inhibition, Pc. The gist of the method: as §1
The test system of the next test is C. albicans ATCC 90028. The experiment in a line: Anti-Fungal Activity Assay (broth microtiter MIC), C. albicans. In kind it is cell-based, Candida albicans. The following applies: Candida albicans, ATCC90028, 48 h, 3 replicates; MIC recorded at 48 h; read-out: MIC C. albicans ATCC 90028. The gist of the method:
(§2)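 Broth microdilution per CLSI M27-A3 in RPMI 1640+MOPS, inoculum from overnight Sabouraud dextrose agar colonies at 35° C; compounds from 1 mg/mL DMSO stocks. MIC read visually against growth control at 48 h, with an added 24 h reading for soraphen.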

The conditions of test [3]: compound concentration 10 ppm, foliar spray, evaluated 7 days after inoculation.
Another test relates to Septoria tritici (St). The experiment in a line: Growth inhibition assay of fungal pathogens, St. The class given is cell-based. The following applies: Zymoseptoria tritici; 48 hours; read-out: Concentration at 90% Inhibition, St. The gist of the method: as §1
Another test deals with Human ACC2 (Homo sapiens, UniProt O00763). The experiment in a line: In vitro ACC2 inhibition assay (ADP-Glo), human ACC2. The following applies: 5 nM ACC2, 20 μM ATP, 20 μM acetyl-CoA. In kind it is biochemical. A general note: ADP-Glo turns the ADP formed in a reaction into a luminescent signal.
Sequence of Human ACC2 (O00763 whole entry): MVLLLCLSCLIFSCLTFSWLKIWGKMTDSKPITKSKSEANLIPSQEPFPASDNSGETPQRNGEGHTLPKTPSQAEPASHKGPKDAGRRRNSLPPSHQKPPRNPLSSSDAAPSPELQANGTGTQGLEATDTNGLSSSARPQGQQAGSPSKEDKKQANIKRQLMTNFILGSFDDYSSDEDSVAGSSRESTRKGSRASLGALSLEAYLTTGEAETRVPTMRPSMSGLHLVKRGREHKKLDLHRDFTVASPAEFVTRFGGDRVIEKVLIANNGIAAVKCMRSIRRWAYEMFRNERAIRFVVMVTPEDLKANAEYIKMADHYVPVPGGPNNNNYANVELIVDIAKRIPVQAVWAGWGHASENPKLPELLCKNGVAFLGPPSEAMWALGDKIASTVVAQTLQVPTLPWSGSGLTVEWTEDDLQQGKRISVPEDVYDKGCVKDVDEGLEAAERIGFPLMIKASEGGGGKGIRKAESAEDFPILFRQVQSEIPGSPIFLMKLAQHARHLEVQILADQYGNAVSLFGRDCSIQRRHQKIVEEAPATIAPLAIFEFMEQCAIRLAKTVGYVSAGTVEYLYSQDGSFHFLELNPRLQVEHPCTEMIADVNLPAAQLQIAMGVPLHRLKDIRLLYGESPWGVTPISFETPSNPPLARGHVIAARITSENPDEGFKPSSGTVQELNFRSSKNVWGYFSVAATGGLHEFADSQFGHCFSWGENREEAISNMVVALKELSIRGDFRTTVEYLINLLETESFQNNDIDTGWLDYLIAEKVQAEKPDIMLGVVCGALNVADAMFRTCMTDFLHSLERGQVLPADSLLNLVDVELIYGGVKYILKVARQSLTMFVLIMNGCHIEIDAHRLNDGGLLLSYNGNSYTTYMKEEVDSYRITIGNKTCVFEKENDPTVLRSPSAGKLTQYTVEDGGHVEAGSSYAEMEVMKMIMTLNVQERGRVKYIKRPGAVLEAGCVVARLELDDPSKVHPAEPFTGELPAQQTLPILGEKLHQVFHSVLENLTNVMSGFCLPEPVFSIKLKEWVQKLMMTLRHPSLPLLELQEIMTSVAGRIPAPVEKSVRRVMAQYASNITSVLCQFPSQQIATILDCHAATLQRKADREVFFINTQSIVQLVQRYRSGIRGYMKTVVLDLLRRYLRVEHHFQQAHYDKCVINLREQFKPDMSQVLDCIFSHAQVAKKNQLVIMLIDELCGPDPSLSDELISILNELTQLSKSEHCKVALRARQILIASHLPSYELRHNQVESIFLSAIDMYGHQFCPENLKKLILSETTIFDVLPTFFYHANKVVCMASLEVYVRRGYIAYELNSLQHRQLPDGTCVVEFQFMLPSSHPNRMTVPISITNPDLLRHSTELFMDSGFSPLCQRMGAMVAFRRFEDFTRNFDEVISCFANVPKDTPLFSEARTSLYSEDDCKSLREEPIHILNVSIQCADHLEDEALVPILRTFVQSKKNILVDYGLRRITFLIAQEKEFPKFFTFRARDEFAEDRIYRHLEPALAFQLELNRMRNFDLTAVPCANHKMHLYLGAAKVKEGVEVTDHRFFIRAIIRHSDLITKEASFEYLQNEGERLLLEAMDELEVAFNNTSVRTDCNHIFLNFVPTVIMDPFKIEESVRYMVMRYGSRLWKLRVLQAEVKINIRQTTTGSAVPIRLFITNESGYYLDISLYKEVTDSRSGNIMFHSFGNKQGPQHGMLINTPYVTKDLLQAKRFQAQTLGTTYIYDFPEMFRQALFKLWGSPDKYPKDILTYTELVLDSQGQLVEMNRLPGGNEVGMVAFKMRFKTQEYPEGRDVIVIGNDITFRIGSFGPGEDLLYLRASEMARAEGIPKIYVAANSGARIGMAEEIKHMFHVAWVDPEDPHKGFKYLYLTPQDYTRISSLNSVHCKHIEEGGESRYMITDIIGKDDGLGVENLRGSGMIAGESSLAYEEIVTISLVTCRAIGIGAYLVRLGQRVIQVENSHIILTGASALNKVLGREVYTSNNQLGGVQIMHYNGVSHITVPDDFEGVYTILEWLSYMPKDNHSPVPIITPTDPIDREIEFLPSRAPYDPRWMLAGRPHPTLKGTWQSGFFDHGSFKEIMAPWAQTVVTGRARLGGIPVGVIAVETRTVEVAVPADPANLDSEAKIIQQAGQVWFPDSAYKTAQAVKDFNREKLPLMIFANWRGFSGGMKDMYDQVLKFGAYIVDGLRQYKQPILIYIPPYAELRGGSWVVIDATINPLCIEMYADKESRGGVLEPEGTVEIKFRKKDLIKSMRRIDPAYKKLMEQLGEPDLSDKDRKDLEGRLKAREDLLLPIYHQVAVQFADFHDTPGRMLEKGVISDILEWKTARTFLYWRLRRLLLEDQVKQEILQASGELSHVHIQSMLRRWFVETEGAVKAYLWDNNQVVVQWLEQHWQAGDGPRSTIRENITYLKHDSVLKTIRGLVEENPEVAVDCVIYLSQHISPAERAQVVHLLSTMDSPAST
The test system of the next test is C. krusei ATCC 6258. The experiment in a line: Anti-Fungal Activity Assay (broth microtiter MIC), C. krusei. In kind it is cell-based, Candida krusei. The note with it: Pichia kudriavzevii, ATCC6258, 48 h, 3 replicates; MIC recorded at 48 h; read-out: MIC C. krusei ATCC 6258. In a few lines:
as §2

Another test relates to Botrtyis cinerea (Bc). The experiment in a line: Growth inhibition assay of fungal pathogens, Bc. The class given is cell-based. The following applies: 48 hours; read-out: Concentration at 90% Inhibition, Bc. In a few lines: as §1
Test [4] relates to Collectotrichum graminicola (Cg). The experiment in a line: Growth inhibition assay of fungal pathogens, Cg. The following applies: 48 hours; read-out: Concentration at 90% Inhibition, Cg. In kind it is cell-based. The gist of the method: as §1
Test [5] deals with C. parapsilosis ATCC 22019. The experiment in a line: Anti-Fungal Activity Assay (broth microtiter MIC), C. parapsilosis. In kind it is cell-based, Candida parapsilosis. The following applies: Lodderomyces parapsilosis, ATCC22019, 48 h, 3 replicates; MIC recorded at 48 h; read-out: MIC C. parapsilosis ATCC 22019. The gist of the method: as §2
For test [6], the system named is Fusarium virguliforme (Fv). Briefly: Growth inhibition assay of fungal pathogens, Fv. The class given is cell-based. The note with it: 48 hours, read-out: Concentration at 90% Inhibition, Fv. In a few lines: as §1
The next test relates to Rhizoctonia solani (Rs). Briefly: Growth inhibition assay of fungal pathogens, Rs. In kind it is cell-based. The note with it: 48 hours, read-out: Concentration at 90% Inhibition, Rs.
Test [7] has as its system Blumeria graminis f sp. hordei. Briefly: Foliar protection test, barley powdery mildew control. In kind it is in vivo, Blumeria graminis f sp. hordei on Hordeum vulgare cv. Perry. The note with it: 168 h, compound concentration 50 ppm, foliar spray, evaluated 7 days after inoculation, read-out: Barley Powdery Mildew Control at 50 ppm. The gist of the method:
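Barley cv. Perry at first true leaf (6 days) sprayed to wetness on both leaf sides with compound in 5% acetone/0.005% Tween 80, typically at 200, 100, 50, 10 or 2 ppm. Inoculated 24 h later by shaking spores from colonized plants; kept at 20-22 °C, 70% RH. Mildew colonization scored 7 days later as percent control.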

Sequence of Fungal ACC2 (Q00955 whole entry): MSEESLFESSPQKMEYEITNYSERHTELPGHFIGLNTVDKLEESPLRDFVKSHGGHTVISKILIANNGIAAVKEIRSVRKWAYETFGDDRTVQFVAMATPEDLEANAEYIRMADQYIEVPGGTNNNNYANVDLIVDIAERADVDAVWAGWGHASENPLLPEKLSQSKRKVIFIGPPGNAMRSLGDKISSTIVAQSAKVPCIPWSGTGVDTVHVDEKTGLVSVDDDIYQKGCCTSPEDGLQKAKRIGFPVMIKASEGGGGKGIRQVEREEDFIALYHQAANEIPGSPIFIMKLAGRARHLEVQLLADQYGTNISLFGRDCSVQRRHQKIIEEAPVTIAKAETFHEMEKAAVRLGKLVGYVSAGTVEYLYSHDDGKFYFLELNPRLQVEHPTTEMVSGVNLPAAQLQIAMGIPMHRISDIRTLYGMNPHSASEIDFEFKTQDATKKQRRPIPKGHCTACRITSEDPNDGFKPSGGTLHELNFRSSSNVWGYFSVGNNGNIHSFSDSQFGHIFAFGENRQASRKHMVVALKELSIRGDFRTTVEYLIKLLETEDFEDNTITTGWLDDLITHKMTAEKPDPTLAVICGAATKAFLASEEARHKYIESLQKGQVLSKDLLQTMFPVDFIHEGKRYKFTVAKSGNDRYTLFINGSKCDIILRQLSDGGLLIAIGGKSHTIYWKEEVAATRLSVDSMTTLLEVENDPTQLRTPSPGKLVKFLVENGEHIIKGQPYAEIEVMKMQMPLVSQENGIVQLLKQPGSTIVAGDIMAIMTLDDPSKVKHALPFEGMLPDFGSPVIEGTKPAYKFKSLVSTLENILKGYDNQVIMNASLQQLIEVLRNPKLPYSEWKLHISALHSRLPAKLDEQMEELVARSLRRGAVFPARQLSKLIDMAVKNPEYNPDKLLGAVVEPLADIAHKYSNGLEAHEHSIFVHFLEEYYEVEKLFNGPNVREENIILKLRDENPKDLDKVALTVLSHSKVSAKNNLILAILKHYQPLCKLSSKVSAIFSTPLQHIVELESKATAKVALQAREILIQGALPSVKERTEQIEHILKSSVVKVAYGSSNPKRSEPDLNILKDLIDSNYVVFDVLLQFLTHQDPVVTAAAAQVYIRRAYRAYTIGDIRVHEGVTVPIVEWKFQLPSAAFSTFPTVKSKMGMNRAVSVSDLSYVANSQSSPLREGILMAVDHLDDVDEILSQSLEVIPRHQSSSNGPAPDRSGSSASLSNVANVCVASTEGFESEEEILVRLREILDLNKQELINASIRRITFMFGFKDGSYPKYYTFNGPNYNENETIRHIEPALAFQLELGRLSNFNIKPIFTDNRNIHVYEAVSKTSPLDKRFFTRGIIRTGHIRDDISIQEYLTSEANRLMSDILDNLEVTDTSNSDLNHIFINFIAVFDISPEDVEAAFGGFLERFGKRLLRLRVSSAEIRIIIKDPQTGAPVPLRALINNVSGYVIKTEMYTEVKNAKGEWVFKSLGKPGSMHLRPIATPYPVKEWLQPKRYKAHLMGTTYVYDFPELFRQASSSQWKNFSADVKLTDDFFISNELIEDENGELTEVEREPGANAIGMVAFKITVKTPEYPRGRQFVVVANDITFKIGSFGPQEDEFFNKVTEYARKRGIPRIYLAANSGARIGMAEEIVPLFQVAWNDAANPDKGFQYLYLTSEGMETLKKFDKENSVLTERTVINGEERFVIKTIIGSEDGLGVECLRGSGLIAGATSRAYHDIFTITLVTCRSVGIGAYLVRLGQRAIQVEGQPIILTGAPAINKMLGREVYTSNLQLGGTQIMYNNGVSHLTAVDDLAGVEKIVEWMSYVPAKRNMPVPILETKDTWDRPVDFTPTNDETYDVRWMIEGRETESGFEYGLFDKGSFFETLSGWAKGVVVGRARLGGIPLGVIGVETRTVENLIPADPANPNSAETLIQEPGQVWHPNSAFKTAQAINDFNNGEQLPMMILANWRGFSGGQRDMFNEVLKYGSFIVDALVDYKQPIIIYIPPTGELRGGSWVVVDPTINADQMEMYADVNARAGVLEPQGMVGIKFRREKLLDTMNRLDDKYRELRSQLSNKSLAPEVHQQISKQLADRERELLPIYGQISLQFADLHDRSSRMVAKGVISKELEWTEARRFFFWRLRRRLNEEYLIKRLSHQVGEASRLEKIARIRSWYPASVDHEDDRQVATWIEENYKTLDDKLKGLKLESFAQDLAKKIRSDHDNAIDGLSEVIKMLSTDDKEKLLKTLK

As for `COCCO[C@@H](Cn1c(=O)n([C@@H]2CCCN(C)C2=O)c(=O)c2c(C)c(-n3nccn3)sc21)c1cc(F)ccc1OC` [Compound I-32, 1-((R)-2-(5-fluoro-2-methoxyphenyl)-2-(2-methoxy-ethoxy)ethyl)-5-methyl-3-((R)-1-methyl-2-oxopiperidin-3-yl)-6-(2H-1,2,3-triazol-2-yl)thieno[2,3-d]pyrimidine-2,4(1H,3H)-dione], the IC90 in test [1] was 2 µg/mL (≈ 3.41 µM); with Diplodia maydis (Dm), > 50 µg/mL; in test [2] it was > 50 µg/mL; in the test with Septoria tritici (St), > 50 µg/mL; in the test with Botrtyis cinerea (Bc), 10 µg/mL (≈ 17 µM); in test [4], > 50 µg/mL. Moreover, the IC90 (in test [6]; in the test on Rhizoctonia solani (Rs)) was > 50 µg/mL in each case. The figures for the IC50 at Fungal ACC2 and on Human ACC2 were 0.7 to 2 nM and 10 to 100 nM, respectively. The MIC (in the test on C. albicans ATCC 90028; in the test on C. krusei ATCC 6258; in [5]) was 2.1 to 4 µg/mL (≈ 3.58 to 6.82 µM) in each case. Moreover, the “Barley Powdery Mildew Control at 10 ppm” value in [3] is reported as “C (provided a compound having from 25 to 49% control of barley powdery mildew)”. Further, the pest or weed control at 50 ppm in [7] was 70 to 84%.
With `COCCO[C@@H](Cn1c(=O)n([C@@H]2CCNC2=O)c(=O)c2c(C)c(-n3cccn3)sc21)c1cc(F)ccc1OC` [Compound I-42, 1-((R)-2-(5-fluoro-2-methoxyphenyl)-2-(2-methoxy-ethoxy)ethyl)-5-methyl-3-((R)-2-oxopyrrolidin-3-yl)-6-(1H-pyrazol-1-yl)thieno[2,3-d]pyrimidine-2,4(1H,3H)-dione], the IC90 (in [1]; in the test on Diplodia maydis (Dm); in test [2]; with Septoria tritici (St); in the test with Botrtyis cinerea (Bc); in test [4]) was > 50 µg/mL each time. For the same compound, the IC90 (in [6]; with Rhizoctonia solani (Rs)) was > 50 µg/mL in each case. The IC50 (as a rule, the concentration that gives 50% inhibition) fell in the range of 2 to 10 nM on Fungal ACC2 and 10 to 100 nM on Human ACC2. Moreover, the minimum inhibitory concentration (MIC) (in the test with C. albicans ATCC 90028; in the test on C. krusei ATCC 6258; in test [5]) was 2.1 to 4 µg/mL (≈ 3.77 to 7.17 µM) in each case. The “Barley Powdery Mildew Control at 10 ppm” value in [3] was “D (provided a compound having <25% control of barley powdery mildew)”. In addition, the pest or weed control at 50 ppm in test [7] lay in the range of 25 to 49%.
In the case of `COCCO[C@@H](Cn1c(=O)n([C@@H]2CCN(C)C2=O)c(=O)c2c(C)c(-n3cccn3)sc21)c1cc(F)ccc1OC` [Compound I-44, 1-((R)-2-(5-fluoro-2-methoxyphenyl)-2-(2-methoxy-ethoxy)ethyl)-5-methyl-3-((R)-1-methyl-2-oxopyrrolidin-3-yl)-6-(1H-pyrazol-1-yl)thieno[2,3-d]pyrimidine-2,4(1H,3H)-dione], the IC90 in [1] is 10 µg/mL (≈ 17.5 µM); in the test on Diplodia maydis (Dm) it was > 50 µg/mL; in test [2] it was > 50 µg/mL; in the test with Septoria tritici (St) it was > 50 µg/mL; in the test with Botrtyis cinerea (Bc), > 50 µg/mL; in test [4], > 50 µg/mL. Besides, the IC90 (in test [6]; in the test with Rhizoctonia solani (Rs)) was > 50 µg/mL in each case. For the same compound, the concentration for half-maximal inhibition (IC50) at Fungal ACC2 was 2 to 10 nM; against Human ACC2 it was 10 to 100 nM. Besides, the MIC (with C. albicans ATCC 90028; in the test with C. krusei ATCC 6258; in test [5]) was 2.1 to 4 µg/mL (≈ 3.67 to 7 µM) each time. Besides, the “Barley Powdery Mildew Control at 10 ppm” value in test [3] is “D (provided a compound having <25% control of barley powdery mildew)”. Besides, in [7], the pest or weed control at 50 ppm is 70 to 84%.
Turning to `COCCO[C@@H](Cn1c(=O)n([C@H]2CCCNC2=O)c(=O)c2c(C)c(-n3cccn3)sc21)c1cc(F)ccc1OC` [Compound I-45, 1-((R)-2-(5-fluoro-2-methoxyphenyl)-2-(2-methoxy-ethoxy)ethyl)-5-methyl-3-((S)-2-oxopiperidin-3-yl)-6-(I H-pyrazol-1-yl)thieno[2,3-d]pyrimidine-2,4(1H,3H)-dione], the IC90 (in [1]; in the test on Diplodia maydis (Dm); in test [2]; in the test with Septoria tritici (St); in the test with Botrtyis cinerea (Bc); in test [4]) was > 50 µg/mL each time. Besides, the IC90 (in test [6]; in the test with Rhizoctonia solani (Rs)) was > 50 µg/mL in each case. Also, the figures for the IC50 at Fungal ACC2 and at Human ACC2 were 2 to 10 nM and 10 to 100 nM, respectively. The MIC (with C. albicans ATCC 90028; with C. krusei ATCC 6258; in test [5]) was 2.1 to 4 µg/mL (≈ 3.67 to 7 µM) in each case. In test [3], the “Barley Powdery Mildew Control at 10 ppm” value is reported as “D (provided a compound having <25% control of barley powdery mildew)”. In addition, the pest or weed control at 50 ppm in test [7] is 50 to 69%.
On to `COCCO[C@@H](Cn1c(=O)n([C@@H]2CCCNC2=O)c(=O)c2c(C)c(-n3cccn3)sc21)c1cc(F)ccc1OC` [Compound I-46, 1-((R)-2-(5-fluoro-2-methoxyphenyl)-22-(2-methoxy-ethoxy)ethyl)-5-methyl-3-((R)-2-oxopiperidin-3-yl)-6-(I H-pyrazol-1-yl)thieno[2,3-d]pyrimidine-2,4(1H,3H)-dione], for which the IC90 (in test [1]; with Diplodia maydis (Dm); in test [2]; with Septoria tritici (St); in the test with Botrtyis cinerea (Bc); in test [4]) was > 50 µg/mL throughout. Moreover, the IC90 (in test [6]; in the test on Rhizoctonia solani (Rs)) was > 50 µg/mL in each case. Also, the figures for the IC50 on Fungal ACC2 and against Human ACC2 were 10 to 100 nM and 100 to 1000 nM, respectively. Besides, the MIC (in the test with C. albicans ATCC 90028; in the test on C. krusei ATCC 6258; in test [5]) was 2.1 to 4 µg/mL (≈ 3.67 to 7 µM) each time. Moreover, in [3], the “Barley Powdery Mildew Control at 10 ppm” value is given as “D (provided a compound having <25% control of barley powdery mildew)”. Besides, the pest or weed control at 50 ppm in [7] was in the range of 50 to 69%.
Consider `COCCO[C@@H](Cn1c(=O)n([C@H]2CCCN(C)C2=O)c(=O)c2c(C)c(-n3cccn3)sc21)c1cc(F)ccc1OC` [Compound I-47, 1-((R)-2-(5-fluoro-2-methoxyphenyl)-2-(2-methoxy-ethoxy)ethyl)-5-methyl-3-((S)-1-methyl-2-oxopiperidin-3-yl)-6-(I H-pyrazol-1-yl)thieno[2,3-d]pyrimidine-2,4(1H,3H)-dione], for which the IC90 (in test [1]; in the test with Diplodia maydis (Dm); in [2]; in the test with Septoria tritici (St); in the test with Botrtyis cinerea (Bc); in [4]) was > 50 µg/mL each time. Moreover, the IC90 (in test [6]; in the test on Rhizoctonia solani (Rs)) was > 50 µg/mL throughout. For the same compound, the IC50 lay in the range of 2 to 10 nM at Fungal ACC2 and 100 to 1000 nM against Human ACC2. Also, the MIC (in the test on C. albicans ATCC 90028; in the test on C. krusei ATCC 6258; in test [5]) was 2.1 to 4 µg/mL (≈ 3.59 to 6.83 µM) throughout. The “Barley Powdery Mildew Control at 10 ppm” value in test [3] is “D (provided a compound having <25% control of barley powdery mildew)”. The pest or weed control at 50 ppm in test [7] lay within 50 to 69%.
`COCCO[C@@H](Cn1c(=O)n([C@@H]2CCCN(C)C2=O)c(=O)c2c(C)c(-n3cccn3)sc21)c1cc(F)ccc1OC` [Compound I-48, 1-((R)-2-(5-fluoro-2-methoxyphenyl)-2-(2-methoxy-ethoxy)ethyl)-5-methyl-3-((R)-1-methyl-2-oxopiperidin-3-yl)-6-(1H-pyrazol-1-yl)thieno[2,3-d]pyrimidine-2,4(1H,3H)-dione]: the IC90 (in [1]; in the test with Diplodia maydis (Dm); in test [2]; with Septoria tritici (St); in the test on Botrtyis cinerea (Bc); in test [4]) was > 50 µg/mL each time. Besides, the IC90 (in [6]; in the test with Rhizoctonia solani (Rs)) was > 50 µg/mL in each case. The IC50 at Fungal ACC2 was in the range of 10 to 100 nM; against Human ACC2, 100 to 1000 nM. For the same compound, the minimal inhibitory concentration (MIC) (in the test with C. albicans ATCC 90028; in the test with C. krusei ATCC 6258; in test [5]) was 2.1 to 4 µg/mL (≈ 3.59 to 6.83 µM) throughout. Moreover, the “Barley Powdery Mildew Control at 10 ppm” value in test [3] is “C (provided a compound having from 25 to 49% control of barley powdery mildew)”. In addition, the pest or weed control at 50 ppm in test [7] was in the range of 50 to 69%.
